Data taken from patent US7479497B2, “Use of quinoline derivatives with anti-integrase effect and applications thereof” (priority 2002, dated 2009).

What was measured:
[1] = test system: virus; settings: integrase mutations at V165 and V249, and at C280 for a second virus
[2] = test system: viral DNA; test: Quantification of total viral DNA synthesized and of DNA integrated into the host cell genome after infection (Butler et al.); assay type: cell-based; settings: FIG. 1
Procedure: FIG. 1, the quantification of the total viral DNA synthesized 6 hours after infection and the quantity of viral DNA integrated into the genome 8 hours after infection, and
Study of the Quantification of the Total Viral DNA Synthesized and of the DNA Integrated into the Genome of a Host Cell after Infection
The operation described by Butler et al. in Nat. Med. 2001 May; 7 (5): 631-4 is carried out.

[3] = target: integrase (Human immunodeficiency virus type 1 group M subtype B, UniProt P04585); test: Integrase inhibitor in vitro; assay type: biochemical
[4] = target: T1, integrase of HIV-1 (Human immunodeficiency virus type 1 group M subtype B, UniProt P04585); test: Nuclear import test on the integrase of HIV-1 in permeabilized HeLa cells; assay type: cell-based; settings: 30 minutes at 30° C., FIGS. 5 and 6
T1 construct: incubated for 30 minutes at 30° C. with integrase coupled with Cyanine 3 fluorochrome
Procedure: FIGS. 5 and 6 show the quantification of the fluorescence intensity measured in a nuclear import test on the integrase of HIV-1 in permeabilized HeLa cells in the presence or absence of cytoplasmic extracts.
The import tests in FIG. 5 were carried out as described in Depienne et al. 2001. HeLa cells were permeabilized with Digitonin, then incubated for 30 minutes at 30° C. with integrase coupled with Cyanine 3 fluorochrome in the presence of energy, in the absence of cytosolic extracts and in the presence or absence of increasing concentrations of different molecules as indicated. The cells were then fixed, analyzed by epifluorescence microscopy and acquisitions were carried out with a CCD camera.
For each condition, the fluorescence intensity per surface unit was quantified in 150 to 300 nuclei originating from 3 independent experiments.
The data of FIGS. 6 and 7 were obtained as follows: HeLa cells were permeabilized with digitonin, then incubated for 30 minutes at 30° C. with integrase conjugated to Cyanine 3 fluorochrome and with bovine serum albumin (BSA) conjugated to the standard nuclear localization signal of the T antigen of the SV40 virus (NLS) and with fluorescein (BSA-NLS), in the presence of cytosolic extracts and energy and in the presence or in the absence of increasing concentrations of different molecules as indicated. […]

COc1cc(/C=C/c2ccc3ccc(C(=O)[O-])c(O)c3n2)cc(O)c1O.[Na+] [FZ41, 8-hydroxy-2-[2-[(3,4-dihydroxy,5-methoxyphenyl)ethenyl]]7-quinoline carboxylic acid]
emergence of resistant viruses [1]: emergence of viruses resistant to the drug | total viral DNA synthesized ([2]; 6 hours after infection): strong reduction | viral DNA integrated into the genome ([2]; 8 hours after infection): strong reduction | Integrase inhibitor in vitro [3]: YES | nuclear import of integrase (fluorescence in the nuclei of permeabilized cells) [4]: considerably reduce
